Read-outs that look alike come from different tables or passages of the source.

The target in this data set is T1, P-gp (human MDR1) (Homo sapiens, UniProt P08183).
T1 construct: expressed in transfected cells; host or cells: LLC-PK1 cells stably expressing human MDR1 (gift of Professor Qingcheng Mao, University of Washington)
The data set is described as follows: Bidirectional transport across LLC-PK1-MDR1 monolayer cells with or without tariquidar. Type of data set: in vitro ADME. The conditions noted are these: for efflux ratio at 2 h, 2 µM: human, read-out: ER value (efflux ratio). An excerpt: Cell lines: LLC-PK1 cells with stable-expressing human MDR1 and mock-transfected with empty vector (LLC-PK1-MOCK) were gifted by the lab of Professor Qingcheng Mao (University of Washington, Seattle, WA, USA). The culture medium of the LLC-PK1-MOCK and LLC-PK1-MDR1 cells was 1640 medium containing 10% FBS and 100 U/mL PS. The Caco-2 cells were purchased from ADCC. The Caco-2 cell culture medium was DMEM high-glucose medium (containing 10% FBS, 1% non-essential amino acid solution, 100 U/mL PS). Both cell lines were cultured at 37 °C in a cell incubator containing 5% CO2.
LLC-PK1-MDR1, LLC-PK1-MOCK, and Caco-2 cells were seeded in 24-well Transwell cell plates at optimized densities. The medium was changed every other day for the LLC-PK1 cells and every day for the Caco-2 cells. The LLC-PK1 cells were cultured continuously for 4–7 days, while the Caco-2 cells were cultured continuously for 28–35 days in preparation for transport experiments. Prior to the experiment, TEER (transepithelial electrical resistance) values were measured using a cell resistance meter. For electrical measurements, two electrodes were used, with one electrode placed in the upper compartment and the other in the lower compartment and the electrodes were separated by the cellular monolayer. The measurement procedure included measuring the blank resistance (Rblank) of the semipermeable membrane only (without cells) and measuring the resistance across the cell layer on the semipermeable membrane (Rtotal). TEER values were achieved by calculating as TEER = (Rtotal − Rblank) × Marea in the unit of Ω·cm^2. The monolayer integrity was guaranteed by determining the TEER before and after the bidirectional transport experiments. […]
The apparent permeability rate value (Papp) of the monolayer cells was calculated according to Equation (5) Papp = (dQ/dt)/(A × C0)(5) where dQ/dt is the transport rate (µmol·s^−1); A is the insert surface area (0.33 cm^2); C0 is the initial concentration of the compound (µM).
Efflux rate (ER) was calculated according to Equation (6):ER = Papp B-A/PappA-B(6)

T1 sequence (P08183 whole entry): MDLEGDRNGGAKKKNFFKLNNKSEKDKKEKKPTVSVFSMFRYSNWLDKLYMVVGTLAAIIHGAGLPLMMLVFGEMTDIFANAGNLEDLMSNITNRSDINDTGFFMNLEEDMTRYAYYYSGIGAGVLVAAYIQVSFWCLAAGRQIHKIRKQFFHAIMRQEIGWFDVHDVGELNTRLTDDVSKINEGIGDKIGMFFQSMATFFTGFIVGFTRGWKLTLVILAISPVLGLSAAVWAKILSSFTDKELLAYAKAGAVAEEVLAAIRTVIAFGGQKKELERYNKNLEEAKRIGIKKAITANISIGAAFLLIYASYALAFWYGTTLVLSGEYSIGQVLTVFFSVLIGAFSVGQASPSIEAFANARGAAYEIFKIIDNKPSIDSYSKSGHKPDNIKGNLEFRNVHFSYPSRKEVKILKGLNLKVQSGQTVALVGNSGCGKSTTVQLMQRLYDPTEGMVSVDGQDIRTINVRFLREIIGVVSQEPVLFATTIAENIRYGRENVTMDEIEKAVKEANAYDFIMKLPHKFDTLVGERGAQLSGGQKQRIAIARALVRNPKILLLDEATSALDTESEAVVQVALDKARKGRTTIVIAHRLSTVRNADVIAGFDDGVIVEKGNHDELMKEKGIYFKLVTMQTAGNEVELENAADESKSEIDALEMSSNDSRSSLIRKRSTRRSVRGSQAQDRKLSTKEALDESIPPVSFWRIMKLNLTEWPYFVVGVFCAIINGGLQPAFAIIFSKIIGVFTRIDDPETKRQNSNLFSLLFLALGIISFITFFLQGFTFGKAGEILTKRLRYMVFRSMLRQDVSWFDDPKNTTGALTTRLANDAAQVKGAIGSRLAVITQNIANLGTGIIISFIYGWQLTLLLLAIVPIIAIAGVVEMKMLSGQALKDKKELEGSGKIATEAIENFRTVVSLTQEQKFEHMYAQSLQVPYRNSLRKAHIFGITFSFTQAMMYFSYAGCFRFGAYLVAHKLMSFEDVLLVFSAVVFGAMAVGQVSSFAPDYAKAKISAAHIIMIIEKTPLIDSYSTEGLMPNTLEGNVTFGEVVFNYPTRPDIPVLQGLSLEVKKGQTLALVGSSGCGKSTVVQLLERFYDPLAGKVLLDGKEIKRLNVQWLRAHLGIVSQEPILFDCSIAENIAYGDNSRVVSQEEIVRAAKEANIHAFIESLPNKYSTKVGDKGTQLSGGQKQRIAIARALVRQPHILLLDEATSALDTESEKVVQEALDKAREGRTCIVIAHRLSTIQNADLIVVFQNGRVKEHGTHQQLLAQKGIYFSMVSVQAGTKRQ

Regarding `COC(=O)Nc1c(N)nc(-c2nn(Cc3sccc3F)c3ncc(F)cc23)nc1N` [SGC003F], the P-gp substrate assessment result (LLC-PK1-MDR1 vs LLC-PK1-MOCK, with/without tariquidar) is reported as “substrate for P-gp”. Moreover, the efflux ratio at 2 h, 2 µM turned out to be 6.71 (LLC-PK1, LLC-PK1-MDR1 cells, without tariquidar) and 1.28 (LLC-PK1, with tariquidar 5 µM, LLC-PK1-MDR1 cells, with tariquidar 5 µM).

These data come from PMC11435065, “Inhibition of P-Glycoprotein Asymmetrically Alters the In Vivo Exposure Profile of SGC003F: A Novel Guanylate Cyclase Stimulator” (Pharmaceuticals, 2024).
